Five compounds from ChEMBL document CHEMBL1201862, “PubChem BioAssay data set” (2004) can be followed below.

Assay in all cases: NCI-60 cell line screen, 48 h
Assay [1] relates to A498.
The test system of assay [2] is A549.
For assay [3], the system named is EKVX.
Assay [4] has as its system HCC 2998.
Assay [5] has as its system HCT-15.
Assay [6] has as its system HOP-62.
Assay [7] deals with K562.
The subject of assay [8] is M14.
The subject of assay [9] is NCI/ADR-RES.
In assay [10] the test system is OVCAR-3.
Assay [11] concerns OVCAR-4.
Assay [12] relates to OVCAR-8.
The subject of assay [13] is PC-3.
For assay [14], the system named is RXF 393.
The test system of assay [15] is SK-MEL-5.
Assay [16] relates to SR.
In assay [17] the test system is TK-10.
Assay [18] deals with U-251.
For assay [19], the system named is UACC-257.
In assay [20] the test system is UO-31.

The structures appear in SMILES notation.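 Dose response: 5 concentrations. Exposure: 48 h. Format: 96-well plates. Endpoint: linear interpolation; highest concentration if not reached. GI50 is the concentration that inhibits growth by half.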 Activity calls are given as the source filed them. No stated cut-off is given here; in the data, active = GI50 up to about 1.1 µM and inactive = higher.

As to `COc1ccc(/C=C/NC=O)cc1`, the GI50 in assay [1] was > 100 µM (inactive); in [2] it was > 100 µM (inactive); in [3], > 100 µM (inactive); in assay [4] it was > 100 µM (inactive); in assay [5], above 100 µM; in assay [6], > 100 µM (inactive). The GI50 in [7], in [8], in assay [9], in [10], in assay [11] and in [12] was > 100 µM (inactive) each time. Besides, the GI50 in [13], in assay [14], in [15], in assay [16], in [17] and in [18] was > 100 µM (inactive) each time. The GI50 in [19] and in [20] was > 100 µM (inactive) throughout.
With `CSc1nc(=O)c(C#N)c(-c2ccccc2)n1C1OC(COC(C)=O)C(OC(C)=O)C(OC(C)=O)C1OC(C)=O` (stereo not given), the GI50 in assay [1] is > 100 µM (inactive); in assay [2], 69.3 µM (inactive); in assay [3], > 100 µM (inactive); in assay [4] it was > 100 µM (inactive); in assay [5], above 100 µM; in assay [6], > 100 µM (inactive). Also, the GI50 was > 100 µM (inactive) in assay [7]; > 100 µM (inactive) in [8]; > 100 µM (inactive) in assay [9]; 78.3 µM (inactive) in assay [10]; > 100 µM (inactive) in [11]; 60.5 µM (inactive) in assay [12]. Also, the GI50 was 52.2 µM (inactive) in assay [13]; 94.4 µM (inactive) in assay [14]; 81.7 µM (inactive) in assay [15]; > 100 µM (inactive) in [16]; > 100 µM (inactive) in assay [17]; > 100 µM (inactive) in assay [18]. The values for the GI50 in assay [19] and in [20] were > 100 µM (inactive) and 39.2 µM (inactive), respectively.
Turning to `C[C@H](CCC(=O)NCCS(=O)(=O)O)[C@H]1CC[C@H]2[C@@H]3[C@H](O)C[C@@H]4C[C@H](O)CC[C@]4(C)[C@H]3CC[C@]12C`, the GI50 was > 100 µM (inactive) in assay [1]; > 100 µM (inactive) in [2]; > 100 µM (inactive) in [3]; > 100 µM (inactive) in [4]; above 100 µM in [5]; > 100 µM (inactive) in assay [6]. Further, the GI50 was > 100 µM (inactive) in [7]; > 100 µM (inactive) in assay [8]; 45.9 µM (inactive) in [9]; > 100 µM (inactive) in assay [10]; > 100 µM (inactive) in assay [11]; > 100 µM (inactive) in assay [12]. In addition, the GI50 in assay [13], in assay [14], in assay [15], in assay [16], in assay [17] and in [18] was > 100 µM (inactive) throughout. In addition, the GI50 in [19] and in assay [20] was > 100 µM (inactive) throughout.
Take `CCN(CC)CCNc1ccc2nnn3c4ccc([N+](=O)[O-])cc4c(=O)c1c23`: the GI50 was 6.3 µM (inactive) in assay [1]; 4.47 µM (inactive) in assay [2]; 14.1 µM (inactive) in assay [3]; 25.8 µM (inactive) in [4]; 6.93 µM in [5]; 2.28 µM (inactive) in assay [6]. Further, the GI50 in assay [7] is 6.7 µM (inactive); in [8], 11.8 µM (inactive); in [9], 7.16 µM (inactive); in assay [10], > 79.6 µM (inactive); in [11], 9.18 µM (inactive); in assay [12], 4.76 µM (inactive). For the same compound, the GI50 is 5.26 µM (inactive) in assay [13]; 4.78 µM (inactive) in assay [14]; 3.62 µM (inactive) in assay [15]; 5.01 µM (inactive) in assay [16]; 11.6 µM (inactive) in [17]; 5.21 µM (inactive) in assay [18]. Moreover, the GI50 in [19] is 10 µM (inactive); in [20] it was 3.44 µM (inactive).
Turning to `CCCCCCCCCCCC/C=C\CC[C@@H](O)[C@H](O)CC[C@H](O)[C@@H]1CC[C@@H](CCCCCCCC2=C[C@H](C)OC2=O)O1` [GIGANTRIONENIN], the GI50 was 5.56 µM (inactive) in assay [1]; 1.73 µM (inactive) in assay [2]; 2.97 µM (inactive) in [3]; 17.3 µM (inactive) in [4]; 3.85 µM in assay [5]; 4.1 µM (inactive) in assay [6]. The GI50 in [7] is 1.15 µM (inactive); in assay [8] it was 13.9 µM (inactive); in [9] it was 1.24 µM (inactive); in assay [10] it was 1.99 µM (inactive); in assay [11], 10.8 µM (inactive); in assay [12] it was 2.64 µM (inactive). The GI50 in assay [13] was 2.75 µM (inactive); in [14], 19.4 µM (inactive); in assay [15] it was 1.26 µM (inactive); in assay [16] it was 1.41 µM (inactive); in assay [17], 2.17 µM (inactive); in assay [18] it was 3.08 µM (inactive). The GI50 in [19] is 0.0546 µM (active); in assay [20], 1.71 µM (inactive).
